From patent publication US20260217761A1, “ANTIMICROBIAL PEPTIDE RICH IN TRYPTOPHAN AND HAVING SELF-ASSEMBLY PROPERTIES, AND USE THEREOF” (NANOQURE BIOTECH (SHENZHEN) CO., LTD., priority 2022, published 2026)
Converted amounts (≈) assume the structure as drawn. “And” between values parts separate entries of the source, which are not always exact repeats. Equal values may be shown once. Read-outs that look alike come from different tables or passages of the source. Residues, ends and D or L forms follow the SMILES beside them. No end group written: not given here.

Tests used:
[1] = system: mixed bacterial solution of Pseudomonas aeruginosa and Staphylococcus aureus; format: cell-based, Pseudomonas aeruginosa PAO1 and Staphylococcus aureus SP1
Experimental: • A. The antimicrobial peptide was prepared into a certain stock solution for use. 0.01% acetic acid (containing 0.2% BSA) was used as the diluent, and a series of gradient antimicrobial peptide solutions were prepared sequentially by a two-fold dilution method. • B. 100 μL of the above-mentioned antimicrobial peptide stock solution was taken and placed in a 96-well cell culture plate. Then, an equal volume of the test bacterial solution (approximately 10^5 cells/mL) was added to each well. A positive control (containing the bacterial solution but no antimicrobial peptide) and a negative control (containing neither bacterial solution nor the peptide) were included, respectively. […] The culture plate was placed in a constant temperature incubator at 37° C. for 20 h. The minimum inhibitory concentration is determined as the condition where no turbidity is observed at the bottom of the well with naked eyes.

[2] = system: various bacteria; experiment: MIC against various bacteria (broad-spectrum antimicrobial activity); format: cell-based
Experimental: • A. The antimicrobial peptide was prepared into a certain stock solution for use. 0.01% acetic acid (containing 0.2% BSA) was used as the diluent, and a series of gradient antimicrobial peptide solutions were prepared sequentially by a two-fold dilution method. • B. 100 μL of the above-mentioned antimicrobial peptide stock solution was taken and placed in a 96-well cell culture plate. Then, an equal volume of the test bacterial solution (approximately 10^5 cells/mL) was added to each well. A positive control (containing the bacterial solution but no antimicrobial peptide) and a negative control (containing neither bacterial solution nor the peptide) were included, respectively. The test bacterial species include Pseudomonas aeruginosa (Pseudomonas aeruginosa PL1, Pseudomonas aeruginosa SP1), Staphylococcus aureus (Staphylococcus aureus 544, Staphylococcus aureus 103), Escherichia coli (Escherichia coli 729, Escherichia coli 112), Klebsiella Pneumoniae (Klebsiella Pneumoniae 106, Klebsiella Pneumoniae 727), Streptococcus pneumonia 383, Acinetobacter baumannii (Acinetobacter baumannii 946, Acinetobacter baumannii 780) (FIG. 1), or Pseudomonas aeruginosa (Pseudomonas aeruginosa PAO1), Staphylococcus aureus (Staphylococcus aureus SP1), and a mixed solution of the above two bacteria (FIG. 2). • C. The culture plate was placed in a constant temperature incubator at 37° C. for 20 h. The minimum inhibitory concentration is determined as the condition where no turbidity is observed at the bottom of the well with naked eyes.
• A. The polypeptide Z4 composed entirely of dextrorotatory amino acids is called the dextrorotatory isomer of polypeptide Z4. The polypeptide Z4-D was prepared into a certain stock solution for use. […] The minimum inhibitory concentration is determined as the condition where no turbidity is observed at the bottom of the well with naked eyes.

[3] = Self-assembly observed by scanning electron microscopy (SEM); format: physicochemical; settings: in phosphate-buffered saline (PBS) (pH=7.2)
Experimental: Without being bound by any theory, it is deduced that the reason why WW++W++WW has better self-assembly activity and MIC than +++WWW+++ is based on the WW at both ends of the peptide, rather than the number of positively charged amino acids (K and/or R). • B. Observation of polypeptide Z4 by scanning electron microscopy (SEM): To prepare SEM samples for observing the self-assembly of the polypeptide, 10 μL of the polypeptide was placed on tin foil that had been ultrasonically treated for 30 min.
After drying, the samples were sputter-coated with gold. All samples were observed using Gimini SEM 500.

[4] = system: P. aeruginosa; experiment: Killing curve (bactericidal activity) against P. aeruginosa; format: cell-based, Pseudomonas aeruginosa
Experimental: (§1) • A. To determine the bactericidal ability of polypeptide Z4, Pseudomonas aeruginosa and Staphylococcus aureus were suspended in PBS until OD600 nm=0.4, then diluted 1000 times with fresh PBS and mixed in equal volumes. Polypeptide Z4 was added to the bacterial suspension at concentrations of 1×MIC and 2×MIC. […] After incubation at 37° C. for 18 h, the single colonies of the microorganisms were counted. The experiment was repeated 3 times and the average value was calculated.

[5] = system: S. aureus; experiment: Killing curve (bactericidal activity) against S. aureus; format: cell-based, Staphylococcus aureus
Experimental: as §1

[6] = system: mixed biofilm of P. aeruginosa and S. aureus; experiment: Anti-biofilm activity on formed mixed biofilm (crystal violet); format: cell-based; settings: for removal effect on the formed biofilm: 3 h
Experimental: • B. To investigate the anti-biofilm activity of polypeptide Z4, P. aeruginosa and S. aureus were grown overnight at 37° C. in tryptic soy broth medium until the logarithmic phase, and then diluted to 1×10^7 CFU/mL and 1×10^6 CFU/mL respectively, and mixed in equal amounts to prepare a mixed bacterial culture. Subsequently, 100 μL of the mixed bacterial suspension was incubated at 37° C. for 24 h to obtain a mixed biofilm. Then, antimicrobial peptides with a final concentration of 2-32 μM were added to a 96-well plate. After incubation at 37° C. for 3 h, the medium was discarded, and the 96-well plate was washed three times with PBS (pH=7.2). After drying at room temperature, 200 μL/well of […] crystal violet staining solution was added to the plate. After incubation at 37° C. for 30 minutes, it was rinsed three times with PBS. After air drying at room temperature, 200 μL/well of 95% ethanol was added and incubated at 37° C. for 30 min, and the absorbance was measured at 595 nm. A total of 3 experiments were set up, and each experiment was repeated 3 times.

[7] = system: P. aeruginosa in the catheter biofilm; experiment: In vivo bactericidal activity in the catheter biofilm, P. aeruginosa; settings: mice, versus PBS control
[8] = system: S. aureus in the catheter biofilm; experiment: In vivo bactericidal activity in the catheter biofilm, S. aureus; settings: mice, versus PBS control
[9] = system: IL-6; experiment: IL-6 content in the skin tissue at the infected site; format: in vivo; settings: mice
[10] = system: inflammatory cells; experiment: Inflammatory cells in sections of skin tissue at the infected site; format: in vivo; settings: mice, versus PBS control
[11] = system: mixed bacterial solution of P. aeruginosa PAO1 and S. aureus SP1; format: cell-based
Experimental: After ultrasonic treatment of polypeptide Z4 and polypeptide Z4-D for 30 min, they were placed at room temperature for 2 h to promote their self-assembly. Subsequently, proteinase K with a final concentration of 0.2 g/mL was mixed with the polypeptide solution (final concentration of 640 μM) and incubated at 37° C. for 0, 30, 60, 90 or 120 min respectively. Then, according to the scheme described in Example 2, the MICs of the polypeptides against the mixed bacterial solution of P. aeruginosa PAO1 and S. aureus SP1 under different treatment conditions were determined.

## NCCCC[C@H](NC(=O)[C@H](CCCCN)NC(=O)[C@H](Cc1c[nH]c2ccccc12)NC(=O)[C@H](CCCCN)NC(=O)[C@H](CCCCN)NC(=O)[C@H](Cc1c[nH]c2ccccc12)NC(=O)[C@@H](N)Cc1c[nH]c2ccccc12)C(=O)N[C@@H](Cc1c[nH]c2ccccc12)C(=O)N[C@@H](Cc1c[nH]c2ccccc12)C(N)=O [Z4, WWKKWKKWW-NH2] (H-WWKKWKKWW-NH2; N-terminus assumed)
[1]
  minimum inhibitory concentration (MIC): 4 µM (≈ 5.84 µg/mL)
[1]; mixed bacterial solution of Pseudomonas aeruginosa and Staphylococcus aureus
  minimum inhibitory concentration (MIC): 4 µM (≈ 5.84 µg/mL)
[2]
  broad-spectrum antimicrobial activity: good broad-spectrum antimicrobial activity
[3]
  average particle size of self-assembled nanomicelle: 174.62 nanometers
[4]; 1×MIC (4 μM)
  time within which all P. aeruginosa were killed: ≤ 60 min
[4]; 1×MIC, 0 min
  survival number of P. aeruginosa: 134000 CFU/mL and 112000 CFU/mL and 104000 CFU/mL
[4]; 1×MIC, 60 min
  survival number of P. aeruginosa: 0 CFU/mL
[4]; 1×MIC, 120 min
  survival number of P. aeruginosa: 0 CFU/mL
[4]; 1×MIC, 180 min
  survival number of P. aeruginosa: 0 CFU/mL
[4]; 1×MIC, 240 min
  survival number of P. aeruginosa: 0 CFU/mL
[4]; 1×MIC, 300 min
  survival number of P. aeruginosa: 0 CFU/mL
[4]; 2×MIC (8 μM)
  time within which all P. aeruginosa were killed: ≤ 30 min
[4]; 2×MIC, 0 min
  survival number of P. aeruginosa: 186000 CFU/mL and 136000 CFU/mL and 132000 CFU/mL
[4]; 2×MIC, 30 min
  survival number of P. aeruginosa: 0 CFU/mL
[4]; 2×MIC, 60 min
  survival number of P. aeruginosa: 0 CFU/mL
[4]; 2×MIC, 120 min
  survival number of P. aeruginosa: 0 CFU/mL
[4]; 2×MIC, 180 min
  survival number of P. aeruginosa: 0 CFU/mL
[4]; 2×MIC, 240 min
  survival number of P. aeruginosa: 0 CFU/mL
[4]; compared with gentamicin
  bactericidal rate against P. aeruginosa compared with gentamicin: faster bactericidal rate
[5]; 1×MIC (4 μM)
  time within which all S. aureus were killed: ≤ 360 min
[5]; 1×MIC, 300 min
  survival number of S. aureus: 2000 CFU/mL
[5]; 1×MIC, 360 min
  survival number of S. aureus: 0 CFU/mL
[5]; 2×MIC (8 μM)
  time within which all S. aureus were killed: ≤ 360 min
[5]; 2×MIC, 360 min
  survival number of S. aureus: 0 CFU/mL
[5]; compared with gentamicin
  bactericidal rate against S. aureus compared with gentamicin: no significant difference in the bactericidal rate
[6]; concentration 4 μM
  removal effect on the formed biofilm: 32.16% and 56.39% and 56.88%
[6]; concentration 8 μM
  removal effect on the formed biofilm: 28.16% and 29.51% and 42.64%
[6]; mixed biofilm
  anti-biofilm activity: good and direct anti-biofilm activity
  concentration at which more than 50% of biofilm is removed: 8 μm
  concentration at which more than 50% of the biofilm is removed: 8 µM
[7]
  number of Pseudomonas aeruginosa colonized in the catheter: significantly reduced
[8]
  number of Staphylococcus aureus colonized in the catheter: significantly reduced
[9]; Biofilm + Z4
  IL-6 content in the skin tissue at the infected site: 110.6228 pg/g and 89.73 pg/g and 91.09 pg/g and 95.94 pg/g and 137.9124 pg/g and 127.2606 pg/g and 88.31 pg/g and 94.64 pg/g
[9]; versus PBS control
  level of IL-6 in the skin tissue: reduced
[10]
  number of infiltrated inflammatory cells: reduced
[11]; 2 h
  MIC after proteinase K treatment: 8 µM (≈ 11.7 µg/mL)
[11]; proteinase K treatment, 90 minutes
  decrease of antimicrobial activity due to hydrolysis by proteinase K: 50%
[11]; proteinase K treatment, before 90 minutes
  MIC before increase under proteinase K treatment: 4 µM (≈ 5.84 µg/mL)

## Gentamicin
[4]; 1×MIC, 0 min
  survival number of P. aeruginosa: 140000 CFU/mL and 126000 CFU/mL and 130000 CFU/mL and 122000 CFU/mL
[4]; 1×MIC, 15 min
  survival number of P. aeruginosa: 116000 CFU/mL and 120000 CFU/mL and 140000 CFU/mL and 108000 CFU/mL
[4]; 1×MIC, 30 min
  survival number of P. aeruginosa: 104000 CFU/mL and 126000 CFU/mL and 110000 CFU/mL
[4]; 1×MIC, 60 min
  survival number of P. aeruginosa: 112000 CFU/mL and 92000 CFU/mL and 106000 CFU/mL and 110000 CFU/mL
[4]; 1×MIC, 120 min
  survival number of P. aeruginosa: 30000 CFU/mL and 52000 CFU/mL and 54000 CFU/mL
[4]; 1×MIC, 300 min
  survival number of P. aeruginosa: 0 CFU/mL
[4]; 2×MIC, 0 min
  survival number of P. aeruginosa: 142000 CFU/mL and 134000 CFU/mL and 122000 CFU/mL and 106000 CFU/mL
[4]; 2×MIC, 15 min
  survival number of P. aeruginosa: 166000 CFU/mL and 104000 CFU/mL and 136000 CFU/mL and 128000 CFU/mL
[4]; 2×MIC, 30 min
  survival number of P. aeruginosa: 116000 CFU/mL and 154000 CFU/mL and 126000 CFU/mL and 130000 CFU/mL
[4]; 2×MIC, 60 min
  survival number of P. aeruginosa: 92000 CFU/mL and 82000 CFU/mL and 70000 CFU/mL and 68000 CFU/mL
[4]; 2×MIC, 240 min
  survival number of P. aeruginosa: 0 CFU/mL
[5]; 1×MIC, 30 min
  survival number of S. aureus: 2000 CFU/mL and 4000 CFU/mL
[5]; 1×MIC, 180 min
  survival number of S. aureus: 2000 CFU/mL and 4000 CFU/mL
[5]; 1×MIC, 360 min
  survival number of S. aureus: 0 CFU/mL
[5]; 2×MIC, 300 min
  survival number of S. aureus: 0 CFU/mL
[5]; 2×MIC, 360 min
  survival number of S. aureus: 0 CFU/mL
[6]; concentration 2 μM
  removal effect on the formed biofilm: 90.78% and 99.18% and 100%
[6]; concentration 4 μM
  removal effect on the formed biofilm: 67.84% and 74.15% and 105.2663%
[6]; concentration 8 μM
  removal effect on the formed biofilm: 86.98% and 97.37% and 78.85%
[6]; concentration 16 μM
  removal effect on the formed biofilm: 64.53% and 107.33% and 74.22%
[6]; mixed biofilm
  concentration at which more than 50% of the biofilm is removed: 32 µM

## KWKWWWKWK-NH2 [Z1, centrally symmetric 9-peptide of tryptophan and lysine]
[2]
  broad-spectrum antimicrobial activity: good broad-spectrum antimicrobial activity
